Results on ten molecules are retold here after PubChem BioAssay (NCI).

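How tested: cells in 96-well plates exposed to compound for 48 hours at five concentrations. GI50 is the concentration that inhibits growth by half. TGI marks complete inhibition of growth.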 Bounds are passed on as bounds.

What all share (test): NCI anticancer screen, dose series, 48 h
Assay [1] deals with UACC-257 melanoma.
For assay [2], the system named is PC-3 prostate.
Assay [3] concerns HS 578T breast.
Assay [4] relates to K-562 leukemia.
In assay [5] the test system is MOLT-4 leukemia.
The subject of assay [6] is MDA-MB-435.
Assay [7] has as its system UACC-62 melanoma.
The test system of assay [8] is MCF7 breast.
Assay [9] deals with NCI/ADR-RES ovarian.
Assay [10] has as its system ACHN renal.

With `O=C1/C(=C/c2ccc(F)cc2)COc2ccc(O)c(O)c21`, the GI50 was 2.99 µM in [1]; 1.16 µM in [2]; 3.5 µM in assay [3]; 0.354 µM in [4]; 1.37 µM in assay [5]; 2.07 µM in assay [6]. For the same molecule, the GI50 in assay [7] is 2.1 µM; in assay [8] it was 1.02 µM; in assay [9] it was 1.96 µM; in [10] it was 1.43 µM. Also, the TGI is 17.7 µM in assay [1]; more than 100 µM in assay [2]; more than 100 µM in [3]; more than 100 µM in [4]; more than 100 µM in [5]; 8.78 µM in assay [6]. Moreover, the TGI in [7] was 6.98 µM; in assay [8], more than 100 µM; in [9] it was 7.85 µM; in assay [10], 2.89 µM.

In the case of `CCN(Cc1cc(Cl)cc(C)c1O)Cc1c(O)ccc2ccccc12`, the TGI in assay [1] stood at 30.4 µM; in assay [2], 29.9 µM; in [3], 36.5 µM; in assay [4], 65.4 µM; in assay [5], 28 µM; in [6], 29.9 µM. For the same molecule, the TGI in assay [7] was determined as 31.4 µM; in assay [8], 39.1 µM; in [9], 32 µM; in assay [10] it was 31.5 µM.

On to `Cc1cccc(CNc2c3ccccc3nc3ccccc23)c1`, for which the GI50 in assay [1] is 2.11 µM; in assay [2], 1.99 µM; in assay [3] it was 2.2 µM; in assay [4], 2.23 µM; in assay [5], 3.06 µM; in assay [6] it was 1.66 µM. The GI50 is 1.61 µM in assay [7], 1.9 µM in assay [8], 1.85 µM in assay [9] and 1.52 µM in assay [10]. Further, the TGI was 5.05 µM in [1]; 7.11 µM in assay [2]; 6.6 µM in [3]; 12.5 µM in assay [4]; 11.3 µM in assay [5]; 3.22 µM in [6]. The TGI was determined as 3.48 µM in [7], 4.88 µM in assay [8], 5.97 µM in [9] and 3.47 µM in assay [10].

With `Cc1cc(NC(=O)NCCOc2ccc(N3C(N)=NC(N)=NC3(C)C)cc2Cl)ccc1S(=O)(=O)F`, the GI50 is 4.1 µM in assay [1]; 0.143 µM in assay [2]; 9.84 µM in assay [3]; 0.599 µM in assay [4]; 4.31 µM in [5]; 0.626 µM in assay [6]. Further, the GI50 in assay [7] is 0.726 µM; in assay [8], 1.7 µM; in assay [9], more than 100 µM; in assay [10] it was 25 µM. Besides, the TGI is more than 49.1 µM in assay [1]; 22.3 µM in assay [2]; 76.8 µM in [3]; more than 100 µM in [4]; more than 100 µM in assay [5]; more than 100 µM in assay [6]. Also, the TGI was 35.2 µM in [7], 50.3 µM in assay [8], more than 100 µM in assay [9] and more than 100 µM in [10].

As to `CN(C)S(=O)(=O)c1cccc(C(=O)Nc2nc(-c3ccc(F)c(F)c3)cs2)c1`, the GI50 in [1] was 6.24 µM; in assay [2], 5.96 µM; in [3], 14.2 µM; in assay [4] it was 5.1 µM; in [5], 3.52 µM; in [6], 5.41 µM. The GI50 in assay [7] was 7.81 µM; in assay [8], 6.01 µM; in assay [9], 5.32 µM; in assay [10], 10.5 µM. For the same molecule, the TGI was more than 100 µM in [1]; more than 100 µM in assay [2]; 91 µM in assay [3]; more than 100 µM in [4]; more than 55.2 µM in [5]; more than 100 µM in [6]. Also, the TGI in assay [7] was more than 100 µM; in assay [8], more than 65 µM; in [9], more than 100 µM; in assay [10], more than 100 µM.

Consider `CC(=O)c1cc2c(Br)cccc2oc1=O`, for which the TGI in assay [1], in assay [2], in [3], in assay [4], in assay [5] and in assay [6] was more than 100 µM each time. Besides, the TGI in [7], in assay [8], in [9] and in [10] was more than 100 µM throughout.

As for `OCc1c(-c2cccs2)oc(-c2cccs2)c1CO`, the GI50 in assay [1] is 56.1 µM; in assay [2] it was 37.7 µM; in assay [3], 44.2 µM; in [4], 41 µM; in assay [5], 27.9 µM; in assay [6], 46.9 µM. For the same molecule, the GI50 was 35.3 µM in [7], 1.62 µM in [8], 40.1 µM in assay [9] and 23.8 µM in assay [10]. Also, the TGI in [1], in assay [2], in [3], in assay [4], in assay [5] and in assay [6] was more than 100 µM in each case. The TGI in assay [7] was more than 100 µM; in [8], more than 100 µM; in assay [9], more than 100 µM; in assay [10], 72.1 µM.

With `Nc1nc(N)nc(CCCCc2nc(N)nc(N)n2)n1`, the TGI in [1], in assay [2], in assay [3], in assay [4], in [5] and in assay [6] was more than 100 µM throughout. The TGI in [7], in [8], in assay [9] and in [10] was more than 100 µM each time.

As to `NCC(=O)Nc1ccc(Cl)cc1C(=O)c1ccc[nH]1`, the TGI in assay [1], in assay [2], in assay [3], in assay [4], in assay [5] and in assay [6] was more than 100 µM throughout. For the same molecule, the TGI in assay [7], in assay [8], in [9] and in [10] was more than 100 µM in each case.

Consider `O=C1OC(C(O)CO)C(C(O)CO)OC1=O` (stereo not given), for which the TGI in assay [1], in assay [2], in assay [3], in [4], in assay [5] and in [6] was more than 10 µM in each case. Besides, the TGI in assay [7], in [8], in assay [9] and in assay [10] was more than 10 µM in each case.
